What was measured:
[1] = test system: O-GlcNAcylated p53 in MCF-7 cells; test: Western blot of O-GlcNAcylated p53 levels in treated MCF-7 cells; assay type: cell-based; details: MCF-7, 24 hr, 2 mM, cytosol-containing supernatants
Experimental: MCF-7 cells were grown in MEM/EBSS media (Hyclone, Logan, Utah) supplemented with 10% fetal bovine serum and 0.01 mg/mL insulin. […] The glucose concentration of MEM/EBSS and DMEM/F12 media are 6 mM and 18 mM, respectively. Cells were maintained in humidified atmosphere with 95% air and 5% CO2 at 37° C.
MCF-7 cells were grown for 24 hr with treatment of 1% DMSO (negative control) or 2 mM STZ or acetazolamide dissolved in DMSO or 2 mM N^6-methyladenosine 5′-monophosphate dissolved in media. The cells were harvested and cytosol-containing supernatants were obtained.

[2] = test system: O-GlcNAcylated c-myc in MCF-7 cells; test: Western blot of O-GlcNAcylated c-myc levels in treated MCF-7 cells; assay type: cell-based; details: MCF-7, 24 hr treatment, 2 mM, nuclear lysates
Experimental: MCF-7 cells were grown in MEM/EBSS media (Hyclone, Logan, Utah) supplemented with 10% fetal bovine serum and 0.01 mg/mL insulin. MCF-10A cells were grown in DMEM/F12 media (Hyclone) supplemented with 5% horse serum, […], […], 20 ng/mL EGF, […], 100 units/mL penicillin-streptomycin and 2 mM glutamine. The glucose concentration of MEM/EBSS and DMEM/F12 media are 6 mM and 18 mM, respectively. Cells were maintained in humidified atmosphere with 95% air and 5% CO2 at 37° C.
MCF-7 breast cancer cells were treated for 24 hr with 1% DMSO, with an O-GlcNAcase inhibitor, streptozotocin (STZ), with N^6-methyladenosine 5′-monophosphate [an O-GlcNAcase inhibitor discovered through by screening with the pseudofluorescent substrate 4-methylumbelliferol (4-MU)-GlcNAc (7)] or with media (control) (FIG. 5).
O-GlcNAcase inhibitors, which increased O-GlcNAcylation levels of proteins by preventing cleavage of an O-GlcNAc moiety of Ser or Thr residues, were identified using the antibodies of the present invention. […]
MCF-7 cells were treated for 4 hr with 1% DMSO (negative control) or 2 mM ketoconazole in DMSO and an O-GlcNAcylated c-myc band was detected using a second antibody for O-GlcNAcylated c-myc (Peptide #1-G).

[3] = test system: MCF10CA1A breast cancer cells; test: QCM ECMatrix cell invasion assay, MCF10CA1A; assay type: cell-based; details: MCF-10CA1A, 100 μM for 72 hr
Experimental: Cell invasiveness of SW480 and HT29 human colon adenocarcinoma cells and MCF10CA1A breast cancer cells with and without 72 hr treatment with 100 μM ketoconazole was studied in 24-well plates using the QCM ECMatrix cell invasion assay kit (EMD Millipore).

MCF-7 and MCF10A cells = test: Lactate dehydrogenase (LDH) cytotoxicity assay, MCF-7 compared with MCF10A; assay type: cell-based; details: 2 mM, 4 hr
Experimental: Increased O-GlcNAcylated c-myc levels in MCF-7 cells induced cell death. MCF-7 tumor cell death after 2 mM ketoconazole treatment was compared with MCF10A normal cell death by LDH cytotoxicity assay. After treatment of cells for 4 hr, extracellular media and Triton X-100 solubilized cells were obtained and oxidation of NADH to NAD+ in both fractions was monitored for 2 min at a 340 nm to obtain total (media+cells) LDH release.

SW480 colon cancer cells = test: Wound healing (cell migration) assay, SW480; assay type: cell-based, human; details: SW480, 100 μM
Experimental: (§1) Wound healing assays to measure inhibition of cell migration toward scratched area with and without treatment of 100 μM ketoconazole dissolved in DMSO (final concentration, 1%). Percent of cells migrated toward a scratched field are shown. […] Percent of cells migrated toward a scratched field are shown.

[4] = test system: MCF-7 breast cancer cells; test: Cell proliferation, MCF-7; assay type: cell-based
Experimental: Cell proliferation assays were carried out after seeding 3,000-5,000 cells in a 96-well plate with and without treatment of 50 μM ketoconazole dissolved in DMSO (final concentration, 1%) for 72 hr (FIG. 8, Panel A). The cell number was counted after staining the cells with 3-(4,5-dimethylthiazol-2-yl)2,5-diphenyl-tetrazolium bromide (MTT).

[5] = test system: Mia Paca-2 pancreatic cancer cells; test: Wound healing (cell migration) assay, Mia Paca-2; assay type: cell-based; details: Mia Paca-2, 100 μM
Experimental: (§2) Wound healing assays were also carried out to verify inhibition of cell migration after ketoconazole treatment.
as §1

[6] = test system: unmodified c-myc in MCF-7 cells; test: Western blot of unmodified c-myc protein in treated MCF-7 cells; assay type: cell-based; details: MCF-7, 4 hr, 2 mM, Peptide #2-N antibody
Experimental: Western blot analysis was carried out with 10% gel electrophoresis using nuclear lysates obtained from MCF-7 cells with antibodies for O-GlcNAcylated c-myc (Peptide #2-G). […] There was no increase in unmodified c-myc protein after ketoconazole treatment as verified with antibodies for unmodified c-myc (Peptide #2-N) by Western blot analysis.

HT29 colon cancer cells = test: Wound healing (cell migration) assay, HT29; assay type: cell-based, human; details: HT29, 100 μM
Experimental: as §1

[7] = test system: PANC1 pancreatic cancer cells; test: Wound healing (cell migration) assay, PANC1; assay type: cell-based; details: PANC1, 100 μM
Experimental: as §2, §1

Row | SMILES | Levels of O-GlcNAcylated p53 [1] | O-GlcNAcylated c-myc levels [2] | inhibition of migration in cell invasion assay [3] | cell death in MCF-7 cells higher than in MCF10A cells (LDH release) (MCF-7 and MCF10A cells) [%] | Percent of cells migrated (SW480 colon cancer cells; 0 hr) | inhibition of cell migration (SW480 colon cancer cells; 24 hours) | Percent of cells migrated (SW480 colon cancer cells; 24 hr) | inhibition of cell proliferation [4] | % cells migrated ([5]; 0 hr) [%] | % cells migrated ([5]; 24 hr) [%] | % cells migrated ([5]; 24 hr, listed as Ketoconazole) [%] | % cells migrated ([5]; 48 hr) [%] | unmodified c-myc protein level [6] | Percent of cells migrated (HT29 colon cancer cells; 0 hr) | inhibition of cell migration (HT29 colon cancer cells; 24 hours) | Percent of cells migrated (HT29 colon cancer cells; 24 hr) | % cells migrated ([7]; 0 hr) [%] | % cells migrated ([7]; 24 hr) [%] | % cells migrated ([7]; 48 hr) [%] | inhibition of cell migration ([7]; wound healing)
1 | CC(=O)Nc1nnc(S(N)(=O)=O)s1 [acetazolamide] | potent inducer | did not increase |  |  |  |  |  |  |  |  |  |  |  |  |  |  |  |  |  | 
2 | CC(=O)N1CCN(c2ccc(OCC3COC(Cn4ccnc4)(c4ccc(Cl)cc4Cl)O3)cc2)CC1 (centres unmarked) [ketoconazole] |  |  | partially inhibited | 84 | 0 | slightly inhibited | 27 | inhibited the proliferation | 0 | 11.6 | 10 | 12 | no increase | 0 | slightly inhibited | 8 | 0 | 6 | 11 | failed to inhibit

— US20200378950A1, “Glycosylation site-specific antibodies and anti-cancer compounds” (Detroit R & D, Inc., priority 2019, published 2020)
